mortality, LC50 and LD50 data for 10 compounds are collected here from patent US4570005A, “Process for the preparation of 2-arylpropyl ether or thioether derivatives” (priority 1980, dated 1986).

The structures appear in SMILES notation. Read-outs that look alike come from different tables or passages of the source.

For one series, the system named is German cockroach. The series can be described thus: Test 7: Effect on German Cockroach. Format: in vivo. To be noted: Blattella germanica. The method, boiled down: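 Petri dish floors were treated with 50 or 10 mg/m2 of compound (diluted emulsifiable concentrate) and air-dried. Ten male adult German cockroaches per dish were held at 25° C. Agonized and dead insects were counted after 24 hours, averaging two dishes.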

In the next series the test system is two-spotted spider mite. The series can be described thus: Test 6: Effect on Two-Spotted Spider mite Adults. Format: in vivo. As to conditions: Tetranychus urticae. The method, then: (§1) To a mixture of 20 parts of the compound of the present invention and 20 parts of Sorpol SM-200 (registered tradename for the product supplied by Toho Chemical Industrial Co., Ltd.) was added 60 parts of xylol, and the mixture was suffciently blended. The obtained emulsifiable concentrate was diluted at a predetermined concentration with distilled water, and the obtained dilution was used.
A kidney bean leaf disc perforated with a cork borer (15 mm in diameter) was placed on water-impregnated absorbent cotton (2 cm×2 cm), and 10 adults of two-spotted spider mite were set free. A chemical dilution having a concentration of 100 ppm was applied with an applicator in an amount of 3 ml.
The leaf disc-placed absorbent cotton was placed in a thermostat chamber maintained at 25° C. After 24 hours, the number of killed adults was counted and the mortality was calculated. The test was made on three leaf discs and the average value was calculated.

For series [1], the system named is resistant green rice leafhopper (collected at Nakagawara). The series can be described thus: Test 3: Effect on Resistant Green Rice Leafhopper (collected at Nakagawara). Format: in vivo, Nephotettix cincticeps Uhler (Green rice leafhopper). To be noted: Nephotettix cincticeps, read-out: Mortality (%), Green Rice Leafhopper Collected at Nakagawara. The method, boiled down: (§2)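 Ten adult females per pot, either resistant (Nakagawara) or sensitive (Chigasaki), were caged on air-dried rice seedlings (2–3 leaves) sprayed at 3 ml/pot with 100 or 20 ppm of an emulsifiable concentrate dilution. Dead and living insects were counted after 24 hours; mortality is the mean of three pots.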

For series [2], the system named is sensitive green rice leafhopper (collected at Chigasaki). The series can be described thus: whole plant or invertebrate. Type of series: in vivo. To be noted: Nephotettix cincticeps, read-out: Mortality (%), Green Rice Leafhopper Collected at Chigasaki. Put shortly: as §2
The next series in a line: Test 8: Fish Toxicity. Format: in vivo. As to conditions: carp, water; concentration at which 1/2 of the test fishes were killed within 48 hours; read-out: Fish Toxicity, TLm48. The method, then: A water tank having a width of 60 cm, a length of 30 cm and a height of 40 cm was filled with water, and 10 yearling carps having a body length of about 5 cm were set free in the tank and adapted to the environment in the tank. A test compound was applied so that the concentration in water was 10, 1 or 0.1 ppm. After 48 hours, the numbers of killed and living carps were counted and the influences on the fishes were examined.

Series [3] deals with tobacco cutworm. The series can be described thus: Test 1: Effect on Tobacco Cutworm (leaf immersion), mortality after 24 hours. Format: in vivo. As to conditions: second-instar larvae, 25° C. Put shortly:
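Second-instar tobacco cutworm larvae were kept at 25 °C on air-dried sweet-potato leaves that had been immersed for 10 s in test dilutions of 100 or 20 ppm from an emulsifiable concentrate. Mortality was scored at 24 h as the mean of three cups.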

The subject of the next series is diamond back moth. The series can be described thus: Test 4: Effect on Diamond Back Moth. Type of series: in vivo. To be noted: Plutella, third-instar larvae, 24 hours, read-out: Mortality (%). Put shortly:
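Compound formulated as an emulsifiable concentrate, diluted in water to 100 or 20 ppm and sprayed at 3 ml per cup onto cabbage leaves holding 10 third-instar larvae. Mortality counted after 24 hours; mean of three cups.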

A short description of series [4]: Test 9: Toxicity Test (acute oral toxicity, mice). As to conditions: mouse, in vivo, po. The procedure: A predetermined amount of a solution or suspension of a test compound in corn oil was orally administered to male mice having a body weight of 19 to 23 g (0.2 ml per 10 g of the body weight). After 7 days, the number of killed mice was counted and the influences on the mice were examined.

In series [5] the test system is tobacco cutworm. The series can be described thus: Test 2: Tobacco Cutworm Larva Dipping Test, mortality after 24 hours. Format: in vivo. As to conditions: 24 hours. The method, boiled down: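 Second- and fifth-instar larvae dipped 5 s in a water dilution of an emulsifiable concentrate at 100 or 20 ppm, blotted, then held on artificial diet at 25° C. Dead and living larvae counted after 24 hours; mortality averaged over three cups.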

A further series deals with green peach aphid. The experiment in a line: Test 5: Effect on Green Peach Aphid. Type of series: in vivo. To be noted: Myzus persicae; 100 ppm; mortality class; 24 hours; read-out: Insecticidal Activity. The method, then:
as §1
Seedlings (having 3 to 4 leaves) of an eggplant grown on a pot were inoculated with green peach aphids and the insects were allowed to grow. The number of the insects was counted. A chemical dilution having a concentration of 100 ppm, prepared in the same manner as described in Test 1, was applied with a spray gun at a rate of 10 ml per pot. Then, the pot was placed in a glass green house. After 24 hours, the number of living insects was counted and the mortality was calculated.
The test was made on three pots, and the average value was calculated. In Table 6, mark "A" indicates a mortality higher than 95%, mark "B" indicates a mortality of 80 to 95%, mark "C" indicates a mortality of 50 to 80%, and mark "D" indicates a mortality lower than 50%.

Setting [6] is: 100 ppm, adults, 24 hours, 25° C, read-out: Mortality (%).
Setting [7] is: 20 ppm, sensitive female adults, 24 hours.
Setting [8] is: 100 ppm, sensitive female adults, 24 hours.
The mark [9] stands for this setting: 10 mg/m^2, male adults, agonized and killed after 24 hours, read-out: Mortality (%).
Where [10] appears, read: 50 mg/m^2, male adults, agonized and killed after 24 hours, read-out: Mortality (%).
[11] abbreviates: fifth-instar larvae, read-out: Motality (%), Fifth-Instar Larvae.
[12] abbreviates: second-instar larvae, read-out: Motality (%), Second-Instar Larvae.

As to `CCOP(=S)(OCC)Oc1ccc(=O)n(-c2ccccc2)n1` [(d), O,O-diethyl-O-(3-oxo-2-phenyl-2H-pyridazin-6-yl)-phosphorothioate, reference compound], the mortality at 10 mg/m2 with German cockroach (24 h) was 50%. Further, the mortality at 50 mg/m2 with German cockroach (24 h) was 100%. Also, the mortality at 100 ppm in the series with two-spotted spider mite (24 h) is 40%; in [1] (100 ppm, resistant female adults, 24 hours), 20%; in series [2] (24 h), 90%. The mortality at 20 ppm was 10% in series [1] (20 ppm, resistant female adults, 24 hours) and 40% in [2] (24 h).
For the compound `Cc1ccc(C(C)(C)COCc2cccc(Oc3ccc(Br)cc3)c2)cc1` [Compound 33, 3-(4-Bromophenoxy)benzyl 2-(4-methylphenyl)-2-methylpropyl ether], the LC50 at 48 h in “Test 8: Fish Toxicity” is over 10 µg/mL. In addition, the mortality at 100 ppm with two-spotted spider mite (setting [6]) amounted to 95%; in series [1] (24 h), 100%; in series [2] (setting [8]) it was 100%; in the series with tobacco cutworm [3] it was 100%; with diamond back moth it was 100%. The mortality at 20 ppm came out at 100% in [1] (24 h), 100% in [2] (setting [7]), 90% with tobacco cutworm [3] and 90% in the series with diamond back moth. In addition, the LD50 (in general, the dose expected to kill half of the subjects tested) at 168 h in series [4] is over 500 mg/kg.
For `CC(C)(COCc1cccc(Cc2ccccc2)c1)c1ccc(Cl)cc1` [Compound 35, 3-Benzylbenzyl 2-(4-chlorophenyl)-2-methylpropyl ether], the LC50 at 48 h in the series “Test 8: Fish Toxicity” was over 10 µg/mL. For the same compound, the figures for the mortality at 100 ppm (with two-spotted spider mite (setting [6]); in series [1] (24 h); in [2] (setting [8])) were 85%, 100% and 100%, respectively. In addition, the results for the mortality at 20 ppm in series [1] (24 h) and in series [2] (setting [7]) were 70% and 50%, respectively. Further, the LD50 at 168 h in series [4] was over 500 mg/kg.
Regarding `CC(C)(COCc1cccc(Oc2ccc(F)cc2)c1)c1ccc(F)cc1` [Compound 45], in the series with German cockroach (setting [9]), the mortality at 10 mg/m2 is 100%. Further, the mortality at 50 mg/m2 in the series on German cockroach (setting [10]) came out at 100%. Also, the LC50 at 48 h in the series “Test 8: Fish Toxicity” was over 1 µg/mL. The mortality at 100 ppm (with two-spotted spider mite (setting [6]); in series [1] (24 h); in series [2] (setting [8]); in the series on tobacco cutworm [3]; in the series on diamond back moth) was 100% in each case. The mortality at 20 ppm (in series [1] (24 h); in series [2] (setting [7]); in the series with tobacco cutworm [3]; with diamond back moth) was 100% throughout. The LD50 at 168 h in series [4] is over 500 mg/kg.
Turning to `CCC(C)(COCc1cccc(Oc2ccc(Br)cc2)c1)c1ccc(Cl)cc1` (centres unmarked) [Compound 46], the LC50 at 48 h in the series “Test 8: Fish Toxicity” was over 10 µg/mL. The mortality at 100 ppm in the series with two-spotted spider mite (setting [6]) stood at 95%; in series [1] (24 h) it was 100%; in series [2] (setting [8]), 100%; with tobacco cutworm [3], 100%; in the series with tobacco cutworm [5] (setting [11]), 80%; with tobacco cutworm [5] (setting [12]), 90%. For the same compound, the mortality at 100 ppm in the series with diamond back moth is 100%. Besides, the mortality at 20 ppm in series [1] (24 h) was 80%; in series [2] (setting [7]), 65%; in the series on tobacco cutworm [3], 100%; in the series on tobacco cutworm [5] (setting [11]), 60%; with tobacco cutworm [5] (setting [12]) it was 80%; in the series on diamond back moth, 100%. This compound also came in with an LD50 at 168 h in series [4] of over 500 mg/kg.
Regarding `Cc1ccc(C(C)(C)COCc2cccc(Oc3ccccc3)c2)cc1` [Compound 47, 3-Phenoxybenzyl 2-(4-methylphenyl)-2-methylpropyl ether], the mortality at 10 mg/m2 in the series on German cockroach (setting [9]) worked out at 90%. Besides, the mortality at 50 mg/m2 in the series with German cockroach (setting [10]) worked out at 100%. Also, in “Test 8: Fish Toxicity”, the LC50 at 48 h is over 10 µg/mL. For the same compound, the mortality at 100 ppm (in the series on two-spotted spider mite (setting [6]); in series [1] (24 h); in series [2] (setting [8]); in the series with tobacco cutworm [3]) was 100% in each case. For the same compound, the mortality at 20 ppm in [1] (24 h) is 100%; in series [2] (setting [7]), 100%; with tobacco cutworm [3], 90%. In addition, the LD50 at 168 h in series [4] is over 500 mg/kg.
Regarding `CC(C)COc1ccc(C(C)(C)COCc2cccc(Oc3ccccc3)c2)cc1` [Compound 64, 3-Phenoxybenzyl 2-(4-isobutyloxyphenyl)-2-methylpropyl ether], the mortality at 100 ppm in the series with two-spotted spider mite (setting [6]) was 100%; with diamond back moth, 100%; in the series with green peach aphid it was over 95%. Besides, the mortality at 20 ppm with diamond back moth was 70%. In series [4], the LD50 at 168 h is over 500 mg/kg.
As for `CCOCc1ccc(C(C)(C)COCc2cccc(Oc3ccccc3)c2)cc1` [Compound 82, 3-Phenoxybenzyl 2-(4-ethoxymethylphenyl)-2-methylpropyl ether], the mortality at 100 ppm was 90% with two-spotted spider mite (setting [6]), 100% in series [1] (24 h) and 100% in series [2] (setting [8]). In addition, the results for the mortality at 20 ppm in series [1] (24 h) and in series [2] (setting [7]) were 100% and 80%, respectively. The LD50 at 168 h in series [4] is over 500 mg/kg.
Regarding `CCOc1ccc(C(C)(C)COCc2cccc(Oc3ccccc3)c2)cc1C` [Compound 90, 3-Phenoxybenzyl 2-(4-ethoxy-3-methylphenyl)-2-methylpropyl ether], the mortality at 10 mg/m2 with German cockroach (setting [9]) stood at 90%. The mortality at 50 mg/m2 in the series on German cockroach (setting [10]) came out at 100%. Moreover, the mortality at 100 ppm (with two-spotted spider mite (setting [6]); in series [1] (24 h); in series [2] (setting [8]); in the series on tobacco cutworm [3]; in the series on tobacco cutworm [5] (setting [11]); in the series on tobacco cutworm [5] (setting [12])) was 100% each time. Besides, the mortality at 100 ppm with diamond back moth was 100%. The mortality at 20 ppm in series [1] (24 h) is 100%; in series [2] (setting [7]), 100%; in the series on tobacco cutworm [3] it was 100%; with tobacco cutworm [5] (setting [11]) it was 90%; in the series on tobacco cutworm [5] (setting [12]), 100%; in the series on diamond back moth it was 100%. For the same compound, the LD50 at 168 h in series [4] is over 500 mg/kg.
Regarding `C#CCOc1ccc(C(C)(C)COCc2cccc(Oc3ccccc3)c2)cc1` [Compound 98, 3-Phenoxybenzyl 2-(4-propargyloxyphenyl)-2-methylpropyl ether], the mortality at 100 ppm in the series on two-spotted spider mite (setting [6]) stood at 100%. Moreover, in the series with tobacco cutworm [3], the mortality at 20 ppm is 100% and the mortality at 100 ppm was found to be 100%. In series [4], this compound registered a median lethal dose (LD50) at 168 h of over 500 mg/kg.
